Numbers after ± are expanded uncertainties.
Key:
[1] = molar heat capacity at constant pressure; conditions: 101.33 kPa, Small sample (50 mg) DSC
[2] = DTA
[3] = Molar enthalpy of transition or fusion; conditions: DSC

COC(=O)Cc1ccsc1 [methyl 3-thiopheneacetate]
Conditions | molar heat capacity at constant pressure [J/K/mol]
[1], 298.15 K, Liquid | 250.6 ± 4.9

O=S1(=O)CCCOC1 [1,3-oxathiane-3,3-dioxide]
Crystal
Conditions | Molar enthalpy of transition or fusion [kcal/mol] | Normal melting temperature [°C]
[2] | – | 79.8 ± 2
[3] | 3.63 ± 0.12 | –

[1], Crystal
Conditions | molar heat capacity at constant pressure [J/K/mol]
268.15 K | 133.2 ± 2.7
270.15 K | 134.5 ± 2.7
275.15 K | 136.5 ± 2.7
280.15 K | 138.6 ± 2.8
285.15 K | 140.6 ± 2.8
290.15 K | 143.3 ± 2.9
295.15 K | 146.3 ± 2.9
298.15 K | 148.1 ± 3
300.15 K | 149.6 ± 3
305.15 K | 153.8 ± 3.1
310.15 K | 158.6 ± 3.2
315.15 K | 161.5 ± 3.2
320.15 K | 164.8 ± 3.3
325.15 K | 168.3 ± 3.4
330.15 K | 171.7 ± 3.4
335.15 K | 176.3 ± 3.5

O=C(O)Cc1ccsc1 [3-thiopheneacetic acid]
Crystal
Conditions | Molar enthalpy of transition or fusion [kcal/mol] | Normal melting temperature [°C]
[2] | – | 80.2 ± 0.5
[3] | 4.49 ± 0.143 | –

[1], Crystal
Conditions | molar heat capacity at constant pressure [J/K/mol]
268.15 K | 151.1 ± 3
270.15 K | 152.6 ± 3.1
275.15 K | 155.6 ± 3.1
280.15 K | 158.5 ± 3.2
285.15 K | 160.8 ± 3.2
290.15 K | 163.6 ± 3.3
295.15 K | 166.6 ± 3.3
298.15 K | 168.4 ± 3.4
300.15 K | 169.8 ± 3.4
305.15 K | 172.7 ± 3.5
310.15 K | 175.3 ± 3.5
315.15 K | 178.8 ± 3.6
320.15 K | 182.7 ± 3.7
325.15 K | 186.8 ± 3.7
330.15 K | 190.6 ± 3.8
335.15 K | 193.9 ± 3.9
340.15 K | 198.7 ± 4

CC(=O)c1ccsc1 [3-acetylthiophene]
Crystal
Conditions | Molar enthalpy of transition or fusion [kcal/mol] | Normal melting temperature [°C]
[2] | – | 60.5 ± 0.5
[3] | 4.52 ± 0.0956 | –

[1], Crystal
Conditions | molar heat capacity at constant pressure [J/K/mol]
268.15 K | 134 ± 2.7
270.15 K | 134.9 ± 2.7
275.15 K | 136.7 ± 2.7
280.15 K | 138.7 ± 2.8
285.15 K | 140.3 ± 2.8
290.15 K | 142.4 ± 2.8
295.15 K | 145 ± 2.9
298.15 K | 146.1 ± 2.9
300.15 K | 147.5 ± 3

O=C(O)Cc1cccs1 [2-thiopheneacetic acid]
Crystal
Conditions | Molar enthalpy of transition or fusion [kcal/mol] | Normal melting temperature [°C]
[2] | – | 64.2 ± 0.5
[3] | 3.35 ± 0.12 | –

[1], Crystal
Conditions | molar heat capacity at constant pressure [J/K/mol]
268.15 K | 146.3 ± 2.9
270.15 K | 147.2 ± 2.9
275.15 K | 149.6 ± 3
280.15 K | 150.9 ± 3
285.15 K | 153.4 ± 3.1
290.15 K | 155.2 ± 3.1
295.15 K | 157.6 ± 3.2
298.15 K | 159.2 ± 3.2
300.15 K | 160.3 ± 3.2
305.15 K | 163.9 ± 3.3
310.15 K | 166.1 ± 3.3
315.15 K | 168.5 ± 3.4
320.15 K | 170.5 ± 3.4
325.15 K | 173.6 ± 3.5

COC(=O)Cc1cccs1 [methyl 2-thiopheneacetate]
Conditions | molar heat capacity at constant pressure [J/K/mol]
[1], 298.15 K, Liquid | 249.8 ± 3.9

O=S1(=O)CCOCC1 [1,4-oxathiane 4,4-dioxide]
Conditions | Molar enthalpy of transition or fusion [kcal/mol] | Normal melting temperature [°C]
[2], Crystal 1 | – | 130.2 ± 0.4
[3], Crystal 2 | 4.83 ± 0.12 | –

[1], Crystal 2
Conditions | molar heat capacity at constant pressure [J/K/mol]
268.15 K | 134.2 ± 2.7
270.15 K | 135.4 ± 2.7
275.15 K | 137.3 ± 2.7
280.15 K | 139.3 ± 2.8
285.15 K | 141.7 ± 2.8
290.15 K | 144.2 ± 2.9
295.15 K | 146.6 ± 2.9
298.15 K | 147.9 ± 3
300.15 K | 148.9 ± 3
305.15 K | 151.2 ± 3
310.15 K | 153.1 ± 3.1
315.15 K | 155.3 ± 3.1
320.15 K | 157.6 ± 3.2
325.15 K | 159.9 ± 3.2
330.15 K | 162 ± 3.2
335.15 K | 164.1 ± 3.3
340.15 K | 166.9 ± 3.3
345.15 K | 170.3 ± 3.4
350.15 K | 172.8 ± 3.5
355.15 K | 175.5 ± 3.5
360.15 K | 177.7 ± 3.6
365.15 K | 180.1 ± 3.6
370.15 K | 182.5 ± 3.7
375.15 K | 185.6 ± 3.7
380.15 K | 188.6 ± 3.8
385.15 K | 191.5 ± 3.8
390.15 K | 194.7 ± 3.9

c1cscn1 [1,3-thiazole]
Conditions | molar heat capacity at constant pressure [J/K/mol]
[1], 298.15 K, Liquid | 122.1 ± 2.2

CC(=O)c1cccs1 [2-acetylthiophene]
Conditions | molar heat capacity at constant pressure [J/K/mol]
[1], 298.15 K, Liquid | 205.7 ± 4.2

c1csc(-c2cccs2)c1 [2,2'-bithienyl]
Crystal
Conditions | Molar enthalpy of transition or fusion [kcal/mol] | Normal melting temperature [°C]
[2] | – | 31.1 ± 0.5
[3] | 3.94 ± 0.12 | –

[1], Crystal
Conditions | molar heat capacity at constant pressure [J/K/mol]
263.15 K | 175.4 ± 3.5
265.15 K | 176.2 ± 3.5
270.15 K | 178.3 ± 3.6
275.15 K | 182.4 ± 3.6
280.15 K | 185.6 ± 3.7
285.15 K | 189.3 ± 3.8
290.15 K | 192.9 ± 3.9
291.15 K | 193.6 ± 3.9
295.15 K | 198.5 ± 4
298.15 K | 205.5 ± 4.1
300.15 K | 218.1 ± 4.4

O=C(O)c1ccc(C(=O)O)s1 [2,5-thiophenedicarboxylic acid]
[1], Crystal
Conditions | molar heat capacity at constant pressure [J/K/mol]
277.15 K | 161.4 ± 3.2
280.15 K | 162.7 ± 3.3
285.15 K | 163.7 ± 3.3
290.15 K | 164.7 ± 3.3
295.15 K | 166.4 ± 3.3
298.15 K | 167.1 ± 3.3
300.15 K | 167.7 ± 3.4
305.15 K | 169.5 ± 3.4
310.15 K | 171 ± 3.4
315.15 K | 173.1 ± 3.5
320.15 K | 175.1 ± 3.5
325.15 K | 177 ± 3.5
330.15 K | 178.1 ± 3.6
335.15 K | 179.7 ± 3.6
340.15 K | 180.8 ± 3.6
345.15 K | 182.3 ± 3.6
350.15 K | 184 ± 3.7
355.15 K | 186.1 ± 3.7
360.15 K | 186.4 ± 3.7
365.15 K | 190.1 ± 3.8
370.15 K | 192.4 ± 3.8
375.15 K | 194.2 ± 3.9
380.15 K | 196.7 ± 3.9
385.15 K | 198.7 ± 4
390.15 K | 200.9 ± 4
395.15 K | 203.3 ± 4.1
400.15 K | 206.1 ± 4.1
405.15 K | 209.6 ± 4.2
410.15 K | 210.9 ± 4.2
415.15 K | 213.7 ± 4.3
420.15 K | 216.3 ± 4.3
425.15 K | 219.4 ± 4.4
430.15 K | 223.1 ± 4.5
435.15 K | 225.5 ± 4.5
440.15 K | 228.1 ± 4.6
445.15 K | 229.8 ± 4.6

O=S1(=O)CCSCC1 [1,4-dithiane sulfone]
Crystal
Conditions | Molar enthalpy of transition or fusion [kcal/mol] | Normal melting temperature [°C]
[2] | – | 201.1 ± 0.5
[3] | 6.21 ± 0.0956 | –

[1], Crystal
Conditions | molar heat capacity at constant pressure [J/K/mol]
268.15 K | 141 ± 2.8
270.15 K | 141.7 ± 2.8
275.15 K | 143.8 ± 2.9
280.15 K | 145.9 ± 2.9
285.15 K | 148.1 ± 3
290.15 K | 149.8 ± 3
295.15 K | 151.8 ± 3
298.15 K | 152.7 ± 3.1
300.15 K | 153.5 ± 3.1
305.15 K | 155.6 ± 3.1
310.15 K | 158.1 ± 3.2
315.15 K | 160.5 ± 3.2
320.15 K | 163 ± 3.3
325.15 K | 165.5 ± 3.3
330.15 K | 167.5 ± 3.4
335.15 K | 168.9 ± 3.4
340.15 K | 171 ± 3.4
345.15 K | 173 ± 3.5
350.15 K | 175.1 ± 3.5
355.15 K | 177.4 ± 3.5
360.15 K | 179.5 ± 3.6
365.15 K | 181.6 ± 3.6
370.15 K | 184.4 ± 3.7
375.15 K | 186.2 ± 3.7
380.15 K | 189.1 ± 3.8
385.15 K | 191.2 ± 3.8
390.15 K | 195.1 ± 3.9
395.15 K | 199.6 ± 4
400.15 K | 203.3 ± 4.1
405.15 K | 205.7 ± 4.1
410.15 K | 209.1 ± 4.2
415.15 K | 212.2 ± 4.2
420.15 K | 215.5 ± 4.3
425.15 K | 218.8 ± 4.4
430.15 K | 222.8 ± 4.5
435.15 K | 226.2 ± 4.5
440.15 K | 230.2 ± 4.6
445.15 K | 234.7 ± 4.7
450.15 K | 239.4 ± 4.8
454.15 K | 243.2 ± 4.9

From the NIST ThermoML archive (doi:10.1016/j.tca.2005.11.024)
